Activity calls are given as the source filed them.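 How the source made its calls: active means AC50, the dose giving half-maximal effect, exceeds a fixed cutoff for a compound that rescues yeast growth under heat; inactive means the rest, inconclusive results apart.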 Some results are limits rather than exact numbers.

The assay deals with S. cerevisiae Burl-1 ts mutant growth, BacTiter-Glo, 38.5C 24 h. Put plainly: growth induction of Burl-1 ts yeast mutant, dose response, counter-screen for SUMOylation pathway inhibitor project, whole organism, S. cerevisiae, luminescence (AID 463199). (In general: The purpose of a counterscreen is to sort out artefacts and off-target activity.)
As usually defined, the AC50 is the concentration giving half of the maximal activity seen. In the case of `O=C(Nc1ccccc1)N1CCN(CCc2ccccc2)CC1`, the AC50 is > 42 µM (inactive).
For `CS(=O)(=O)c1ccc(Cl)c(C(=O)O)c1` the value was > 42 µM (inactive); for `O=C(CSc1nnc(-c2ccccc2Cl)o1)Oc1ccc(Br)cc1`, > 42 µM (inactive); for `O=C(c1cc2c(ccc3ccccc32)oc1=O)N1CCCC1`, > 42 µM (inactive).
Take `Cc1cccc(N2CCN(C(=O)CN3C(=O)NC(C)(C)C3=O)CC2)c1C`: the AC50 was > 42 µM (inactive).
The value for `COc1ccc(OCCC(=O)c2ccc(OC)cc2)cc1` was > 42 µM (inactive); that for `Cc1cc(CNC(=O)C2CCC(=O)N(Cc3ccccc3F)C2)on1` (stereo not given) was > 42 µM (inactive).
Take `Clc1ccc(CNCc2cccs2)cc1Cl`: the AC50 was > 42 µM (inactive).
Consider `CCOc1ccc(C(=O)Nc2ccc(CN3CCOCC3)cc2)cc1Br`, for which the AC50 was 41.9 µM.
The value for `Cn1c(CN2CCOCC2)nnc1SCC(=O)Nc1cc(Cl)ccc1Cl` was > 42 µM (inactive).
The value for `O=C(O)COc1ccc(Br)cc1/C=N\Nc1ccccn1` was > 42 µM (inactive); that for `N#CC(C#N)=CN=c1ccn(Cc2ccc(Cl)cc2Cl)cc1` was > 42 µM (inactive).
On to `Cc1ccc(C)c(N2CCN(C(c3ccncc3)c3nnnn3Cc3ccccc3)CC2)c1` (stereo not given), for which the AC50 was 32.8 µM.
`COc1ccc(C(=O)NC(=S)Nc2ccc(CN3CCCCC3)cc2)cc1Cl`: the AC50 was > 42 µM (inactive).
For `C[C@H]1O[C@H]1P(=O)(O)O` the value was > 42 µM (inactive); for `CC(C)C(O)(C(=O)NNc1ccccc1)C(C)C`, > 42 µM (inactive).
With `CCOc1ccc(CN(C)C(C)C(=O)NCc2ccccc2)cc1` (stereo not given), the AC50 was > 42 µM (inactive).
For the compound `CS(=O)(=O)Nc1ccccc1C(=O)NCCSCc1ccccc1`, the AC50 is > 42 µM (inactive).
Consider `CCCCn1c2nc3ccccc3nc2c2c(=O)n(CCC)cnc21`, for which the AC50 was > 42 µM (inactive).
Consider `Cc1ccc(S(=O)(=O)Oc2ccccc2N2C(=O)C3CC=CCC3C2=O)cc1` (stereo not given), for which the AC50 is > 42 µM (inactive).
For `CC(NC(=O)c1cccs1)c1ccc(Br)cc1` (stereo not given) the value was > 42 µM (inactive); for `O=C(/C=C/c1ccc(F)cc1)NCC1(c2ccccc2)CCOCC1`, > 42 µM (inactive); for `Fc1ccc(-c2cc(C(F)(F)F)nc(NCc3cccs3)n2)cc1`, > 42 µM (inactive).
Take `Nc1nc2ccccc2cc1-c1cccs1`: the AC50 was > 42 µM (inactive).
The value for `COc1cccc(NC(=O)Nc2cc(C(=O)NC(C)C)ccc2N2CC3CC(C2)c2cccc(=O)n2C3)c1` (stereo not given) was > 42 µM (inactive); that for `CCOc1ccc(C(=O)NNC2CC(=O)N(CCc3ccccc3)C2=O)cc1OC` (stereo not given) was > 42 µM (inactive); that for `Cc1ccc(NC(=O)CN2C(=O)COc3ccc(S(=O)(=O)N4CCOCC4)cc32)cc1F` was > 42 µM (inactive).
For `CC(=O)c1cccc(NC(=O)CNC(=O)c2sc3ccccc3c2Cl)c1`, the AC50 was > 42 µM (inactive).
Turning to `Cc1ccc(S(=O)(=O)n2cccc2C)cc1`, the AC50 was > 42 µM (inactive).
For `Cc1ccnc(NC(=O)CNC(=O)c2ccc(Br)o2)c1` the value was > 42 µM (inactive); for `COc1ccccc1CNC(=O)CCC(=O)Nc1nnc(C(C)C)s1`, > 42 µM (inactive).
The value for `O=C(Nc1ccc2[nH]c(=O)[nH]c2c1)c1c(F)c(F)c(F)c(F)c1F` was 25.8 µM; that for `CN(C(=O)c1ccncc1)c1nnc(-c2cnccn2)s1` was > 42 µM (inactive).
For `CCCOC(=O)c1c(-c2ccc(OC)cc2)oc2ccc(-c3ccc(OC)nc3)cc12` the value was > 42 µM (inactive); for `COc1cc(/C=N/NC(=O)c2ccncc2)ccc1OC(=O)c1ccco1`, > 42 µM (inactive).
For the compound `CSc1cc(C)c(OCC(=O)Nc2c(C)nn(C)c2C)c(C)c1`, the AC50 is > 42 µM (inactive).
On to `CCCn1c(SC(C)C(=O)NCC2CCCO2)nc2sc(CC)cc2c1=O` (stereo not given), for which the AC50 was > 42 µM (inactive).
For `COc1ccc(S(=O)(=O)N2CCc3cc4c(cc3C2C)OCCCO4)cc1` (stereo not given) the value was > 42 µM (inactive); for `CC1=C/C(=N\OS(=O)(=O)c2ccccc2)C(C(C)C)=CC1=O`, > 42 µM (inactive).
The value for `COc1ccccc1NC(=O)COC(=O)CC(C)(C)CC1=NS(=O)(=O)c2ccccc2N1` was > 42 µM (inactive); that for `CCOC(=O)CSc1cc(C)nc2ccc(OC)cc12` was > 42 µM (inactive).
For `CCCNC(=O)c1cc2c(C(F)(F)F)nn(C)c2s1` the value was > 42 µM (inactive); for `C=CCSc1nnc2c(n1)[nH]c1c(C)cccc12`, > 42 µM (inactive).
As for `COc1ccc(CN2CC(=O)N(c3ccccc3C)C2=S)cc1OC`, the AC50 was > 42 µM (inactive).
For `CC(OC(=O)c1cnccn1)C(=O)c1ccccc1` (stereo not given) the value was > 42 µM (inactive).
The value for `COc1ccc(C(=O)O)cc1S(=O)(=O)NCCN(C)C` was > 42 µM (inactive); that for `CCOC(=O)c1cnc2c(C)c(Cl)ccc2c1N1CCOCC1` was > 42 µM (inactive).
The value for `COc1ccc(Cn2nnnc2CN2CCN(c3ccc(OC)cc3)CC2)cc1` was > 42 µM (inactive).
`CC1(C)Cc2c(c(N3CCCC3)nc3sc4c(N5CCN(CCO)CC5)ncnc4c23)CO1`: the AC50 is > 42 µM (inactive).
The value for `CCCCCC(=O)Nc1ccc(-c2csc(N)n2)cc1` was > 42 µM (inactive); that for `CC(C(=O)NCCN1CCOCC1)(c1ccccc1)c1ccccc1` was > 42 µM (inactive); that for `N/C(=N\NC(=O)c1sccc1OCc1ccc(Cl)cc1Cl)c1ccccn1` was > 42 µM (inactive).
With `Cc1cc(-c2ccc(C(C)C)c(S(=O)(=O)N3CC(=O)Nc4ccccc43)c2)on1`, the AC50 is > 42 µM (inactive).
For `NS(=O)(=O)c1cccc(NC(=O)CSc2nnnn2-c2ccccc2)c1` the value was > 42 µM (inactive).
The value for `Cc1cnc(NC(=O)CN2CCN(c3ccccc3F)CC2)s1` was > 42 µM (inactive); that for `S=c1[nH]nc(-c2ccco2)n1-c1ccc(Br)cc1` was > 42 µM (inactive).
For `CC(C)Oc1ccc(CCC(=O)NNC(=O)c2ccccc2C(=O)O)cc1` the value was > 42 µM (inactive); for `CSc1ccccc1-c1nc(-c2ccncc2)no1`, > 42 µM (inactive); for `Cc1ccccc1Nc1cc(=O)oc2ccccc12`, > 42 µM (inactive).
As to `COc1ccccc1CNC(=O)C(C)Sc1ccc(C)cc1` (stereo not given), the AC50 was > 42 µM (inactive).
As to `Cc1c(C(=O)Nc2cccc(F)c2)cnn1-c1ccccc1`, the AC50 was > 42 µM (inactive).
For the compound `O=C(O)c1ccc(/C=N/NC(=O)c2cc(-c3ccc4c5c(cccc35)CC4)n[nH]2)cc1`, the AC50 was > 42 µM (inactive).
Consider `O=C(Nc1cnn(Cc2ccc(Cl)cc2)c1)c1ccc([N+](=O)[O-])cc1`, for which the AC50 was > 42 µM (inactive).
For the compound `O=C(NC(=S)NNC(=O)c1ccccc1O)c1cccc([N+](=O)[O-])c1`, the AC50 is > 42 µM (inactive).
For `CC(Oc1ccccc1)C(=O)Nc1ccccc1O` (stereo not given) the value was > 42 µM (inactive); for `COc1ccc(-c2noc(CSc3nc(-c4ccccc4)cc(=O)[nH]3)n2)cc1OC`, > 42 µM (inactive); for `CCOC(=O)Nc1sc(=S)n(C)c1C`, > 42 µM (inactive).
Consider `O=C1CCCN1CCC(=O)N1CCCC(N2CCN(c3ccccc3F)CC2)C1` (stereo not given), for which the AC50 was > 42 µM (inactive).
For `COc1nc(OC)nc(N2CCC(C(=O)NC3CCCCCC3)CC2)n1` the value was > 42 µM (inactive); for `CN(C(=O)COC(=O)c1cc(-c2ccc(Cl)s2)nc2ccccc12)C1CCS(=O)(=O)C1` (stereo not given), > 42 µM (inactive).
For the compound `Cc1ccc(S(=O)(=O)NCC(C)n2cncn2)cc1` (stereo not given), the AC50 is > 42 µM (inactive).
For `CC1c2cc3c(cc2CCN1CC(=O)Nc1ccccc1)OCCCO3` (stereo not given) the value was > 42 µM (inactive); for `CC(C)(C)c1ccc(-c2nc(C=O)c3ccccn23)cc1`, > 42 µM (inactive); for `Cc1n[nH]c(=O)c2c(NC(=O)COC(=O)Cc3ccc(Cl)cc3Cl)oc(C)c12`, > 21 µM (inactive).
The value for `CCn1c(SCC(=O)Nc2ccc(NC(=O)c3ccco3)cc2)nnc1-c1cccs1` was > 42 µM (inactive).
For `Cc1onc(-c2ccccc2Cl)c1C(=O)N1CCc2ccccc2C1` the value was > 42 µM (inactive); for `COCCn1c(=O)[nH]c(=O)c2cc(C(=O)c3cc(Cl)ccc3O)cnc21`, > 42 µM (inactive).
`CC1CN(C(=O)c2cc([N+](=O)[O-])cc([N+](=O)[O-])c2)CC(C)O1` (stereo not given): the AC50 is > 42 µM (inactive).
Consider `CCCCNC(=O)c1ccccc1NC(=O)C1=C(C)OCCS1`, for which the AC50 is 11.3 µM.
As to `CCN(C(=O)CCS(=O)(=O)c1ccc2c(c1)oc(=O)n2C)c1ccc(OC)cc1`, the AC50 is > 42 µM (inactive).
For `CC1CCCCN1C(=O)C(Cc1ccccc1)N1C(=O)C2CCCCC2C1=O` (stereo not given) the value was > 42 µM (inactive); for `Cc1sc(NC(=O)c2ccc(F)cc2)c(CN2CCCCCC2)c1C`, > 42 µM (inactive).
The value for `Cc1ccc(/C=C2\SC(N3CCCC3)=NC2=O)cc1` was > 42 µM (inactive); that for `Cc1cc([N+](=O)[O-])ccc1NC(=O)CSc1nccc(=O)[nH]1` was > 42 µM (inactive); that for `O=C(O)C1C(C(=O)O)C2(Cl)C(Cl)=C(Cl)C1(Cl)C2(Cl)Cl` (stereo not given) was > 42 µM (inactive).
In the case of `CN(C)C(/C=C/Nc1cccc(Br)c1)=C(C#N)C#N`, the AC50 was > 42 µM (inactive).
The value for `COc1ccc(S(=O)(=O)Cc2ccc(C(=O)NCc3cccs3)o2)cc1` was > 42 µM (inactive); that for `CCC(C)[C@H]1COCCS(=O)(=O)N1Cc1ccc(C)cc1` (stereo not given in full) was > 42 µM (inactive); that for `CC(=O)N/C(=C\c1ccccc1)C(=O)OCC(=O)c1ccccc1` was > 42 µM (inactive).
For `CCC(C)[C@H](NC(=O)OC(C)(C)C)C(=O)NCC1CCC(C(=O)N[C@@H](Cc2ccccc2)C(=O)O)CC1` (stereo not given in full) the value was > 42 µM (inactive).
